Data: ChEMBL document CHEMBL1201862, “PubChem BioAssay data set” (2004)
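A five-concentration, 48-hour dose response in 96-well plates underlies each endpoint, interpolated linearly between surrounding concentrations. GI50 is the concentration that inhibits growth by half.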 Active and inactive are the calls of the source. Cut-off read from the data, not from the text of the source: active = GI50 up to about 1.1 µM and inactive = higher.

How the values were obtained:
Test in all cases: NCI anticancer screen, dose series, 48 h
CAKI-1 = test system: CAKI-1
UO-31 = test system: UO-31
SNB-75 = test system: SNB-75
T47D = test system: T47D
NCI-H460 = test system: NCI-H460
SN12C = test system: SN12C
BT-549 = test system: BT-549
HCC 2998 = test system: HCC 2998
ACHN = test system: ACHN
CCRF-CEM = test system: CCRF-CEM
OVCAR-8 = test system: OVCAR-8
NCI-H522 = test system: NCI-H522
SW-620 = test system: SW-620
OVCAR-4 = test system: OVCAR-4
NCI-H226 = test system: NCI-H226
SNB-19 = test system: SNB-19
MCF7 = test system: MCF7
HCT-15 = test system: HCT-15

SMILES	GI50 (CAKI-1)	GI50 (UO-31)	GI50 (SNB-75)	GI50 (T47D)	GI50 (NCI-H460)	GI50 (SN12C)	GI50 (BT-549)	GI50 (HCC 2998)	GI50 (ACHN)	GI50 (CCRF-CEM)	GI50 (OVCAR-8)	GI50 (NCI-H522)	GI50 (SW-620)	GI50 (OVCAR-4)	GI50 (NCI-H226)	GI50 (SNB-19)	GI50 (MCF7)	GI50 (HCT-15)
O=C1c2cc([N+](=O)[O-])cnc2S(=O)(=O)N1c1ccc(Br)cc1	> 100 µM (inactive)	> 100 µM (inactive)	> 100 µM (inactive)	> 100 µM (inactive)	> 100 µM (inactive)	> 100 µM (inactive)	> 100 µM (inactive)	> 100 µM (inactive)	> 100 µM (inactive)	> 100 µM (inactive)	> 100 µM (inactive)	> 100 µM (inactive)	> 100 µM (inactive)	> 100 µM (inactive)	> 100 µM (inactive)	> 100 µM (inactive)	> 100 µM (inactive)	> 100 µM
Cc1nc(N)c(N2CCN([N+](=O)[O-])CC2)c(O)n1		> 100 µM (inactive)	> 100 µM (inactive)	> 100 µM (inactive)	> 100 µM (inactive)	> 100 µM (inactive)	> 100 µM (inactive)	> 100 µM (inactive)	> 100 µM (inactive)	> 100 µM (inactive)	> 100 µM (inactive)	> 100 µM (inactive)	> 100 µM (inactive)	> 100 µM (inactive)	> 100 µM (inactive)	> 100 µM (inactive)	> 100 µM (inactive)	> 100 µM
Clc1ccc(Cc2nc3cc(Cl)ccc3o2)cc1	30.6 µM (inactive)	32 µM (inactive)		35.8 µM (inactive)	42.1 µM (inactive)	40.1 µM (inactive)	27.9 µM (inactive)	21.6 µM (inactive)	35.6 µM (inactive)	31.6 µM (inactive)	32.3 µM (inactive)	21.7 µM (inactive)	56.4 µM (inactive)	24.4 µM (inactive)	29.1 µM (inactive)	39.6 µM (inactive)	38.5 µM (inactive)	29.5 µM
COc1ccc(N2C(=O)C3c4[nH]c5c(C)cccc5c4C4CCC(c5ccccc5)CC4C3C2=O)cc1 (stereo not given)	16.9 µM (inactive)	20.9 µM (inactive)	10.7 µM (inactive)	5.81 µM (inactive)	5.68 µM (inactive)	16.2 µM (inactive)	24.9 µM (inactive)	> 10 µM (inactive)	19.7 µM (inactive)	1.28 µM (inactive)	15.6 µM (inactive)	3.9 µM (inactive)	9.23 µM (inactive)	11.1 µM (inactive)	10.4 µM (inactive)	21.9 µM (inactive)	6.28 µM (inactive)	11.9 µM
Cc1ccc2c(c1)C(=O)/C(=C\c1ccc(Cl)cc1)CCS2(=O)=O	3.07 µM (inactive)	2.9 µM (inactive)	3.88 µM (inactive)	1.41 µM (inactive)	2.13 µM (inactive)	2.86 µM (inactive)	3.8 µM (inactive)	2.13 µM (inactive)	1.95 µM (inactive)	2 µM (inactive)	1.95 µM (inactive)	1.52 µM (inactive)	3.18 µM (inactive)	2.64 µM (inactive)	3.84 µM (inactive)	2.1 µM (inactive)	3.85 µM (inactive)	1.97 µM
NC(=O)N/N=C1\C[C@H]2CCCC[C@H]2C1	> 100 µM (inactive)	> 100 µM (inactive)	> 100 µM (inactive)	> 100 µM (inactive)	> 100 µM (inactive)	> 100 µM (inactive)	42.7 µM (inactive)	> 100 µM (inactive)	> 100 µM (inactive)		83.4 µM (inactive)	> 100 µM (inactive)	> 100 µM (inactive)	> 100 µM (inactive)	> 100 µM (inactive)	84.7 µM (inactive)	> 100 µM (inactive)	> 100 µM
